pEC50: −log10 of the molar value. Read-outs that look alike come from different tables or passages of the source. Numbered stars: 1 amine (or outer) side, 2 acyl side, 3 side chain; on linkers, the order of the positions; unused ones are H or OH. Square brackets hold non-standard residues; d marks the D form. Side chains are listed from the residue outwards. Ends that are not written are not given here. Peptide text beside a SMILES is read from it. * marks the point of attachment. γGlu = O=C(O)[C@H](CCC(=O)[*:2])N[*:1]; Palmitoyl = CCCCCCCCCCCCCCCC(=O)*; Aib = CC(C)(N)C(=O)O

Assay type in all cases: cell-based
Assay [1] has as its target T1, glucagon receptor (Homo sapiens, UniProt P47871).
T1 construct: expressed in transfected cells; host or cells: HEK293
The assay is described as follows: cAMP induction, firefly luciferase reporter assay in HEK293 cells co-transfected with the glucagon receptor. Conditions: HEK293 cells, cAMP-responsive luciferase reporter, 5 hours incubation; for EC50: read-out: EC50 (nM) at glucagon receptor. The procedure:
(§1) The ability of each peptide to induce cAMP was measured in a firefly luciferase-based reporter assay. […] At the end of the incubation, 100 μL of LucLite luminescence substrate reagent (Perkin Elmer, Wellesley, Mass.) were added to each well. […] In some instances, the in vitro agonist activity at the GIP receptor was also tested.

In assay [2] the target is T2, GLP-1 receptor (Homo sapiens, UniProt P43220).
T2 construct: expressed in transfected cells; host or cells: HEK293
The assay can be described thus: cAMP induction, firefly luciferase reporter assay in HEK293 cells co-transfected with the GLP-1 receptor. Conditions: HEK293 cells, cAMP-responsive luciferase reporter, 5 hours incubation; for EC50: read-out: EC50 (nM) at GLP-1 receptor. The procedure:
as §1

The target in assay [3] is T3, GIP receptor (Homo sapiens, UniProt P48546).
T3 construct: expressed in transfected cells; host or cells: HEK293
T3 sequence (P48546 22-466): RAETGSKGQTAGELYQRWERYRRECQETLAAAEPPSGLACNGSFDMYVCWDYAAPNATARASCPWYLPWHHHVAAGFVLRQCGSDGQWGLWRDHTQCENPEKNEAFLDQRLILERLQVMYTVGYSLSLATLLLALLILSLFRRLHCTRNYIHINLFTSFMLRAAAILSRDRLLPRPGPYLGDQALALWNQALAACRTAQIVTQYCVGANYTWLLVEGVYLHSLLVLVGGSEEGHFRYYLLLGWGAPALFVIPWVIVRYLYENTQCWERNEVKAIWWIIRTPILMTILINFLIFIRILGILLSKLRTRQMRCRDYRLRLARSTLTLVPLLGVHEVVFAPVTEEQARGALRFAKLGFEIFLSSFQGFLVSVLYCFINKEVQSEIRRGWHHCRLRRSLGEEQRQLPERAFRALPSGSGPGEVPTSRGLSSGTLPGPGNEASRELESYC
The assay is described as follows: in vitro agonist activity at the GIP receptor (cAMP luciferase reporter, HEK293 cells). Conditions: in vitro agonist activity; for EC50: read-out: EC50 (nM) at GIP receptor. The procedure: It is understood that a lower EC50 indicates higher activity or potency at the receptor. […] The ability of each peptide to induce cAMP was measured in a firefly luciferase-based reporter assay. […] At the end of the incubation, 100 μL of LucLite luminescence substrate reagent (Perkin Elmer, Wellesley, Mass.) were added to each well. […] In some instances, the in vitro agonist activity at the GIP receptor was also tested.

T2 sequence (P43220 24-463): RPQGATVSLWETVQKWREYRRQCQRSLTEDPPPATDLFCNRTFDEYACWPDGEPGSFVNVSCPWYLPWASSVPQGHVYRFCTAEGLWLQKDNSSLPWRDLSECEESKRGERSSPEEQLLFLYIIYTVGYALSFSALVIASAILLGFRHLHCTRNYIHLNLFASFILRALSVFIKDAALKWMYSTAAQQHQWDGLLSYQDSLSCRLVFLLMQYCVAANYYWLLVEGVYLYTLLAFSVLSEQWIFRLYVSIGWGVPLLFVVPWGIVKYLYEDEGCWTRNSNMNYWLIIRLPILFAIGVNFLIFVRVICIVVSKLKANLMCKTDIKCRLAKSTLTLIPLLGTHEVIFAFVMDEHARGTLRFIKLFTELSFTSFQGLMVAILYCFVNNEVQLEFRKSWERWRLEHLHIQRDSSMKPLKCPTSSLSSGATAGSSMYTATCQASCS
T1 sequence (P47871 26-477, species assumed): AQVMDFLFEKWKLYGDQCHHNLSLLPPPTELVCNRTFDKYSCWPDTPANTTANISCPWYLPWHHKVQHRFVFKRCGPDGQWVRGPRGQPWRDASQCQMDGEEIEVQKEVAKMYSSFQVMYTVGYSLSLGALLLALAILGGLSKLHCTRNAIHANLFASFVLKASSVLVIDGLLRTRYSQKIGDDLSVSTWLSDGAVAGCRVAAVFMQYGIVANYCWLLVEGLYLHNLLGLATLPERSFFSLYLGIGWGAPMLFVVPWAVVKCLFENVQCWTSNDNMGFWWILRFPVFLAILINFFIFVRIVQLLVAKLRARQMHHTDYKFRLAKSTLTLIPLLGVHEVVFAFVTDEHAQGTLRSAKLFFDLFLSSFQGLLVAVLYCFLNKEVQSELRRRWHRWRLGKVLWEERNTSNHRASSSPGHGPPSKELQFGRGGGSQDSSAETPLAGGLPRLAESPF

For the molecule `CCCCCCCCCCCCCCCC(=O)N[C@@H](CCC(=O)N[C@@H](CCC(=O)NCCCC[C@H](NC(=O)[C@H](CC(=O)O)NC(=O)[C@H](CO)NC(=O)[C@@H](NC(=O)[C@H](Cc1ccccc1)NC(=O)[C@@H](NC(=O)CNC(=O)[C@H](CCC(N)=O)NC(=O)C(C)(C)NC(=O)[C@@H](N)Cc1c[nH]cn1)[C@@H](C)O)[C@@H](C)O)C(=O)N[C@@H](CO)C(=O)N[C@@H](CCCCN)C(=O)N[C@@H](Cc1ccc(O)cc1)C(=O)N[C@@H](CC(C)C)C(=O)N[C@@H](CC(=O)O)C(=O)NC(C)(C)C(=O)N[C@@H](CCCNC(=N)N)C(=O)N[C@@H](C)C(=O)N[C@@H](C)C(=O)N[C@@H](CCC(N)=O)C(=O)N[C@@H](CC(=O)O)C(=O)N[C@@H](Cc1ccccc1)C(=O)N[C@H](C(=O)N[C@@H](CCC(N)=O)C(=O)N[C@@H](Cc1c[nH]c2ccccc12)C(=O)N[C@@H](CC(C)C)C(=O)N[C@@H](CCCCN)C(=O)NC(C)(C)C(=O)NCC(=O)N[C@@H](CCCNC(=N)N)C(=O)NCC(N)=O)C(C)C)C(=O)O)C(=O)O` [compound 26] (H-H[Aib]QGTFTSDK([γGlu-γGlu-Palmitoyl])SKYLD[Aib]RAAQDFVQWLK[Aib]GRG-NH2; N-terminus assumed), the pEC50 in assay [1] was 9.97; in assay [2], 11.40. For the same molecule, in assay [3], the EC50 came out at 3.29 nM.

On to `CCCCCCCCCCCCCCCC(=O)N[C@@H](CCC(=O)N[C@@H](CCC(=O)NCCCC[C@H](NC(=O)[C@H](CC(=O)O)NC(=O)[C@H](CO)NC(=O)[C@@H](NC(=O)[C@H](Cc1ccccc1)NC(=O)[C@@H](NC(=O)CNC(=O)[C@H](CCC(N)=O)NC(=O)C(C)(C)NC(=O)[C@@H](N)Cc1c[nH]cn1)[C@@H](C)O)[C@@H](C)O)C(=O)N[C@@H](CO)C(=O)N[C@@H](CCCCN)C(=O)N[C@@H](Cc1ccc(O)cc1)C(=O)N[C@@H](CC(C)C)C(=O)N[C@@H](CC(=O)O)C(=O)NC(C)(C)C(=O)N[C@@H](CCCNC(=N)N)C(=O)N[C@@H](C)C(=O)N[C@@H](C)C(=O)N[C@@H](CCC(N)=O)C(=O)N[C@@H](CC(=O)O)C(=O)N[C@@H](Cc1ccccc1)C(=O)N[C@H](C(=O)N[C@@H](CCC(N)=O)C(=O)N[C@@H](Cc1c[nH]c2ccccc12)C(=O)N[C@@H](CC(C)C)C(=O)N[C@@H](CCCCN)C(=O)N[C@@H](CC(=O)O)C(=O)NCC(=O)N[C@@H](CCCNC(=N)N)C(=O)NCC(N)=O)C(C)C)C(=O)O)C(=O)O` [compound 24] (H-H[Aib]QGTFTSDK([γGlu-γGlu-Palmitoyl])SKYLD[Aib]RAAQDFVQWLKDGRG-NH2; N-terminus assumed), for which the pEC50 is 10.68 in assay [1] and 11.40 in assay [2]. Moreover, the EC50 in assay [3] worked out at 1.46 nM.

As to `CCCCCCCCCCCCCCCC(=O)NCCCC[C@H](NC(=O)[C@H](CC(=O)O)NC(=O)[C@H](CO)NC(=O)[C@@H](NC(=O)[C@H](Cc1ccccc1)NC(=O)[C@@H](NC(=O)CNC(=O)[C@H](CCC(N)=O)NC(=O)C(C)(C)NC(=O)[C@@H](N)Cc1c[nH]cn1)[C@@H](C)O)[C@@H](C)O)C(=O)N[C@@H](CO)C(=O)N[C@@H](CCCCN)C(=O)N[C@@H](Cc1ccc(O)cc1)C(=O)N[C@@H](CC(C)C)C(=O)N[C@@H](CC(=O)O)C(=O)N[C@@H](CO)C(=O)N[C@@H](CCCNC(=N)N)C(=O)N[C@@H](CCCNC(=N)N)C(=O)N[C@@H](C)C(=O)NC(C)(C)C(=O)N[C@@H](CC(=O)O)C(=O)N[C@@H](Cc1ccccc1)C(=O)N[C@H](C(=O)N[C@@H](CCC(N)=O)C(=O)N[C@@H](Cc1c[nH]c2ccccc12)C(=O)N[C@@H](CC(C)C)C(=O)N[C@@H](CCSC)C(=O)N[C@@H](CC(N)=O)C(=O)N[C@H](C(N)=O)[C@@H](C)O)C(C)C` [compound 58] (H-H[Aib]QGTFTSDK(Palmitoyl)SKYLDSRRA[Aib]DFVQWLMNT-NH2), the pEC50 in assay [1] was 10.05; in assay [2], 10.60. The EC50 in assay [3] turned out to be 35.7 nM.

As to “38 (H[Aib]QGTFTSDYSKYLD[Aib]KRA[Aib]EFVC(PEG 40 kDa)WLLDT-NH2) [compound 38]”, the “EC50 (nM) at GIP receptor” value in assay [3] is “no activity”.

For “47 (H[Aib]QGTFTSDYSKYLDEKRA[Aib]EFVC(PEG 40 kDa)WLLDGGPSSGAPPPS-NH2) [compound 47]”, the “EC50 (nM) at GIP receptor” value in assay [3] is given as “no activity”.

As to “51 (H[Aib]QGTFTSDYSKYLDEKRA[Aib]EFVC(PEG 40 kDa (thioether via iodoacetyl))WLL[Aib]GGPSSGAPPPS-NH2) [compound 51]”, the “EC50 (nM) at GIP receptor” value in assay [3] is “no activity”.

`CCCCCCCCCCCCCCCC(=O)N[C@@H](CCC(=O)NCCCC[C@H](NC(=O)[C@H](CC(=O)O)NC(=O)[C@H](CO)NC(=O)[C@@H](NC(=O)[C@H](Cc1ccccc1)NC(=O)[C@@H](NC(=O)CNC(=O)[C@H](CCC(N)=O)NC(=O)[C@@H](CO)NC(=O)[C@@H](N)Cc1c[nH]cn1)[C@@H](C)O)[C@@H](C)O)C(=O)N[C@@H](CO)C(=O)N[C@@H](CCCCN)C(=O)N[C@@H](Cc1ccc(O)cc1)C(=O)N[C@@H](CC(C)C)C(=O)N[C@@H](CC(=O)O)C(=O)N[C@@H](CCC(=O)O)C(=O)N[C@@H](CCC(N)=O)C(=O)N[C@@H](C)C(=O)N[C@@H](C)C(=O)N[C@@H](CCCCN)C(=O)N[C@@H](CCC(=O)O)C(=O)N[C@@H](Cc1ccccc1)C(=O)N[C@H](C(=O)N[C@@H](CS)C(=O)N[C@@H](Cc1c[nH]c2ccccc12)C(=O)N[C@@H](CC(C)C)C(=O)N[C@@H](CC(C)C)C(=O)N[C@@H](CC(=O)O)C(=O)N[C@H](C(N)=O)[C@@H](C)O)[C@@H](C)CC)C(=O)O` [compound 64]: the EC50 in assay [1] was 0.009 nM; in assay [2] it was 0.012 nM.

Regarding “41 (H[Aib]QGTFTSDYSKYLDEKRA[Aib]EFVC(PEG 40 kDa)WLL[Aib]T-NH2) [compound 41]”, in assay [3], the “EC50 (nM) at GIP receptor” value was “no activity”.

On to “52 (H[Aib]QGTFTSDYSKYLDEK[Aib]AKEFVC(PEG 40 kDa (thioether via iodoacetyl))WLLDT-NH2) [compound 52]”, for which, in assay [3], the “EC50 (nM) at GIP receptor” value is “no activity”.

With `CCCCCCCCCCCCCCCC(=O)N[C@@H](CCC(=O)NCCCC[C@H](NC(=O)[C@H](CC(=O)O)NC(=O)[C@H](CO)NC(=O)[C@@H](NC(=O)[C@H](Cc1ccccc1)NC(=O)[C@@H](NC(=O)CNC(=O)[C@H](CCC(N)=O)NC(=O)[C@@H](CO)NC(=O)[C@@H](N)Cc1c[nH]cn1)[C@@H](C)O)[C@@H](C)O)C(=O)N[C@@H](CO)C(=O)N[C@@H](CCCCN)C(=O)N[C@@H](Cc1ccc(O)cc1)C(=O)N[C@@H](CC(C)C)C(=O)N[C@@H](CC(=O)O)C(=O)N[C@@H](CCC(=O)O)C(=O)N[C@@H](CCC(N)=O)C(=O)N[C@@H](C)C(=O)N[C@@H](C)C(=O)N[C@@H](CCCCN)C(=O)N[C@@H](CCC(=O)O)C(=O)N[C@@H](Cc1ccccc1)C(=O)N[C@H](C(=O)N[C@@H](CS)C(=O)N[C@@H](Cc1c[nH]c2ccccc12)C(=O)N[C@@H](CC(C)C)C(=O)N[C@@H](CC(C)C)C(=O)N[C@@H](CC(=O)O)C(=O)N[C@H](C(=O)N[C@@H](CCC(=O)O)C(N)=O)[C@@H](C)O)[C@@H](C)CC)C(=O)O` [compound 65], the EC50 in assay [1] was determined as 0.028 nM; in assay [2], 0.024 nM.

In the case of “13 (H[Aib]QGTFTSDYSKYLDEKRA[Aib]EFVC(PEG 40 kDa)WLLDT-NH2) [compound 13]”, in assay [3], the “EC50 (nM) at GIP receptor” value is recorded as “no activity”.

As to `CC[C@H](C)[C@H](NC(=O)[C@H](Cc1ccccc1)NC(=O)[C@H](CC(C)C)NC(=O)[C@H](CCCNC(=N)N)NC(=O)[C@@H](NC(=O)[C@H](C)NC(=O)[C@H](CCC(N)=O)NC(=O)[C@H](CCC(=O)O)NC(=O)[C@H](CC(=O)O)NC(=O)[C@H](CC(C)C)NC(=O)[C@H](Cc1ccc(O)cc1)NC(=O)[C@H](CCCCN)NC(=O)[C@H](CO)NC(=O)[C@H](Cc1ccc(O)cc1)NC(=O)[C@H](CC(=O)O)NC(=O)[C@H](CO)NC(=O)[C@@H](NC(=O)[C@H](Cc1ccccc1)NC(=O)[C@@H](NC(=O)CNC(=O)[C@H](CCC(N)=O)NC(=O)[C@@H](CO)NC(=O)[C@@H](N)Cc1c[nH]cn1)[C@@H](C)O)[C@@H](C)O)C(C)C)C(=O)N[C@@H](CS)C(=O)N[C@@H](Cc1c[nH]c2ccccc12)C(=O)N[C@@H](CC(C)C)C(=O)N[C@@H](CC(C)C)C(=O)N[C@@H](CC(=O)O)C(=O)NCC(=O)NCC(=O)N1CCC[C@H]1C(=O)N[C@@H](CO)C(=O)N[C@@H](CO)C(=O)NCC(=O)N[C@@H](C)C(=O)N1CCC[C@H]1C(=O)N1CCC[C@H]1C(=O)N1CCC[C@H]1C(=O)N[C@@H](CO)C(N)=O` [compound 62] (H-H[dS]QGTFTSDYSKYLDEQAVRLFICWLLDGGPSSGAPPPS-NH2; N-terminus assumed), the values for the EC50 in assay [1] and in assay [2] were 0.132 nM and 0.006 nM, respectively.

Turning to “45 (H[Aib]QGTFTSDYSKYLDEKRA[Aib]EFVC(PEG 40 kDa)WLLDT-OH) [compound 45]”, the “EC50 (nM) at GIP receptor” value in assay [3] is “no activity”.

Take “46 (H[Aib]QGTFTSDYSKYLD[Aib]KRA[Aib]EFVC(PEG 40 kDa)WLLDGGPSSGAPPPS-NH2) [compound 46]”: in assay [3], the “EC50 (nM) at GIP receptor” value is “no activity”.

The values are drawn from patent publication US8729017B2 (priority 2011, dated 2014).
